Holding throughout (format): cell-based
Experiment [1] relates to M. morganii, Ent. cloacae and Ser. marcescens. The experiment in a line: MIC, two-fold serial agar dilution in Mueller-Hinton agar, group (G-)-II. As to conditions: read-out: Geometric Mean of MIC. As for the experimental part: (§1) In the primary evaluation of the compounds of this invention, the Minimum Inhibitory Concentrations (MIC's) of the compounds were determined by the two-fold serial agar dilution method in Mueller-Hinton agar against 32 strains of test organisms in six groups.
(G-)II: M. morganii (1 strain), Ent. cloacae (2 strains) and Ser.
On the technique in general: In agar dilution, organisms are placed on agar that contains the substance at set levels.

Experiment [2] concerns Ps. aeruginosa. The experiment in a line: MIC, two-fold serial agar dilution in Mueller-Hinton agar, group (G-)-III. As to conditions: Pseudomonas aeruginosa, Ps. aeruginosa (6 strains), read-out: Geometric Mean of MIC. The method, then:
as §1

Experiment [3] deals with Cephalothinsensitive E. coli, Kl. pneumoniae and Pr. mirabilis. The experiment is described as follows: MIC, two-fold serial agar dilution in Mueller-Hinton agar, group (G-)-Ia. As to conditions: read-out: Geometric Mean of MIC. As for the experimental part:
as §1
(G-)Ia: Cephalothinsensitive E. coli (2 strains), Kl. pneumoniae (1
strain) and Pr. mirabilis (2 strains)

The test system of experiment [4] is Penicillinsensitive S. aureus. The experiment in a line: MIC, two-fold serial agar dilution in Mueller-Hinton agar, group (G+)-Ia. Conditions: Staphylococcus aureus, read-out: Geometric Mean of MIC. The method, then: as §1
For experiment [5], the system named is Penicillinresistant S. aureus. The experiment in a line: MIC, two-fold serial agar dilution in Mueller-Hinton agar, group (G+)-Ib. Conditions: Staphylococcus aureus, read-out: Geometric Mean of MIC. The method, then:
as §1
(G+)Ib: Penicillinresistant S. aureus (5 strains)

The subject of experiment [6] is Cephalothinresistant E. coli and Kl. pneumoniae. The experiment in a line: MIC, two-fold serial agar dilution in Mueller-Hinton agar, group (G-)-Ib. As to conditions: read-out: Geometric Mean of MIC. As for the experimental part: as §1
(G-)Ib: Cephalothinresistant E. coli (3 strains) and Kl. pneumoniae (3

The mark [7] stands for this setting: (G-)-II, M. morganii (1), Ent. cloacae (2), Ser. marcescens (2 strains).
Setting [8] is: (G-)-Ia, cephalothin-sensitive E. coli (2), Kl. pneumoniae (1), Pr. mirabilis (2 strains).
Setting [9] is: (G+)-Ia, penicillin-sensitive S. aureus (5 strains).
[10] abbreviates: (G+)-Ib, penicillin-resistant S. aureus (5 strains).

The structures appear in SMILES notation. In brackets after ≈: the same amount, converted by molar mass. Where two headings read alike, the source gives them in different places.

The MIC is the smallest concentration in the dilution series that meets the test's criterion for growth inhibition.

For the molecule `CCSc1scc[n+]1CC1=C(C(=O)[O-])N2C(=O)C(NC(=O)/C(=N\OC3(C(=O)O)CCC3)c3csc(N)n3)[C@H]2SC1` (stereo partly drawn) [Example 12, 7-[(Z)-2-(2-Aminothiazol-4-yl)-2-(1-carboxycyclobut-1-oxyimino)acetamido]-3-(2-ethylthiothiazolio)methyl-3-cephem-4-carboxylate], the MIC was 0.4 µg/mL (≈ 0.64 µM) in experiment [1] (setting [7]); 5.7 µg/mL (≈ 9.12 µM) in experiment [2]; 0.066 µg/mL (≈ 0.106 µM) in experiment [3] (setting [8]); 1.8 µg/mL (≈ 2.88 µM) in experiment [4] (setting [9]); 4.7 µg/mL (≈ 7.52 µM) in experiment [5] (setting [10]); 0.79 µg/mL (≈ 1.26 µM) in experiment [6].

Consider `COc1sc[n+](CC2=C(C(=O)[O-])N3C(=O)C(NC(=O)/C(=N\OC(C)(C)C(=O)O)c4csc(N)n4)C3SC2)c1C` (stereo not drawn) [Example 9, 7-[(Z)-2-(2-Aminothiazol-4-yl)-2-(2-carboxyprop-2-oxyimino)acetamido]-3-(5-methoxy-4-methylthiazolio)methyl-3-cephem-4-carboxylate], for which the minimal inhibitory concentration (MIC) in experiment [1] (setting [7]) came to 2.8 µg/mL (≈ 4.69 µM); in experiment [2], 6.3 µg/mL (≈ 10.6 µM); in experiment [3] (setting [8]), 0.1 µg/mL (≈ 0.168 µM); in experiment [4] (setting [9]), 9.5 µg/mL (≈ 15.9 µM); in experiment [5], 16 µg/mL (≈ 26.8 µM); in experiment [6], 1.6 µg/mL (≈ 2.68 µM).

Take `Cc1c(CCO)sc[n+]1CC1=C(C(=O)[O-])N2C(=O)C(NC(=O)/C(=N\OC(C)(C)C(=O)O)c3csc(N)n3)C2SC1` (stereo not drawn) [Example 6, 7-[(Z)-2-(2-Aminothiazol-4-yl)-2-(2-carboxyprop-2-oxyimino)acetamido]-3-[5-(2-hydroxyethyl)-4-methylthiazolio]methyl-3-cephem-4-carboxylate]: the minimal inhibitory concentration (MIC) in experiment [1] (setting [7]) turned out to be 2.8 µg/mL (≈ 4.58 µM); in experiment [2], 4.4 µg/mL (≈ 7.2 µM); in experiment [3] (setting [8]), 0.076 µg/mL (≈ 0.124 µM); in experiment [4] (setting [9]), 8.3 µg/mL (≈ 13.6 µM); in experiment [5] (setting [10]), 25 µg/mL (≈ 40.9 µM); in experiment [6], 1.8 µg/mL (≈ 2.95 µM).

For the molecule `CC(C)(O/N=C(\C(=O)NC1C(=O)N2C(C(=O)[O-])=C(C[n+]3ccsc3N)CS[C@H]12)c1csc(N)n1)C(=O)O` (stereo partly drawn) [Example 8, 7-[(Z)-2-(2-Aminothiazol-4-yl)-2-(2-carboxyprop-2-oxyimino)acetamido]-3-(2-amino-3-thiazolio)methyl-3-cephem-4-carboxylate], the MIC in experiment [1] (setting [7]) was 8.3 µg/mL (≈ 14.6 µM); in experiment [2] it was 5.6 µg/mL (≈ 9.87 µM); in experiment [3] (setting [8]), 0.15 µg/mL (≈ 0.264 µM); in experiment [4] (setting [9]), 5.5 µg/mL (≈ 9.69 µM); in experiment [5] (setting [10]), 14 µg/mL (≈ 24.7 µM); in experiment [6], 4 µg/mL (≈ 7.05 µM).

For the molecule `Cc1scc[n+]1CC1=C(C(=O)[O-])N2C(=O)C(NC(=O)/C(=N\OC3(C(=O)O)CCC3)c3csc(N)n3)[C@H]2SC1` (stereo partly drawn) [Example 11, 7-[(Z)-2-(2-Aminothiazol-4-yl)-2-(1-carboxycyclobut-1-oxyimino)acetamido]-3-(2-methylthiazolio)methyl-3-cephem-4-carboxylate], the MIC in experiment [1] (setting [7]) was 0.4 µg/mL (≈ 0.691 µM); in experiment [2], 2.1 µg/mL (≈ 3.63 µM); in experiment [3] (setting [8]), 0.076 µg/mL (≈ 0.131 µM); in experiment [4] (setting [9]), 4.2 µg/mL (≈ 7.26 µM); in experiment [5] (setting [10]), 9.5 µg/mL (≈ 16.4 µM); in experiment [6], 1.6 µg/mL (≈ 2.77 µM).

Regarding `C#CCO/N=C(\C(=O)NC1C(=O)N2C(C(=O)[O-])=C(C[n+]3ccsc3SC)CS[C@H]12)c1csc(N)n1` (stereo partly drawn) [Example 17, 7-[(Z)-2-(2-Aminothiazol-4-yl)-2-propargyloxyiminoacetamido]-3-(2-methylthiothiazolio)methyl-3-cephem-4-carboxylate], the MIC in experiment [1] is 0.69 µg/mL (≈ 1.25 µM); in experiment [2] it was 6.9 µg/mL (≈ 12.5 µM); in experiment [3], 0.66 µg/mL (≈ 1.2 µM); in experiment [4], 0.23 µg/mL (≈ 0.418 µM); in experiment [5], 0.8 µg/mL (≈ 1.45 µM); in experiment [6] it was 0.6 µg/mL (≈ 1.09 µM).

Consider `CC(C)(O/N=C(\C(=O)NC1C(=O)N2C(C(=O)[O-])=C(C[n+]3ccsc3NC=O)CS[C@H]12)c1csc(N)n1)C(=O)O` (stereo partly drawn) [Example 14, 7-[2-(Z)-(2-Aminothiazol-4-yl)-2-(2-carboxyprop-2-yloxyimino)acetamido]-3-(2-formylaminothiazolio)methyl-3-cephem-4-carboxylate], for which the MIC in experiment [1] (setting [7]) worked out at 3.2 µg/mL (≈ 5.37 µM); in experiment [2], 7 µg/mL (≈ 11.8 µM); in experiment [3] (setting [8]), 0.15 µg/mL (≈ 0.252 µM); in experiment [4] (setting [9]), 5.5 µg/mL (≈ 9.23 µM); in experiment [5] (setting [10]), 12.5 µg/mL (≈ 21 µM); in experiment [6] it was 3.6 µg/mL (≈ 6.04 µM).

For `CC(C)(O/N=C(\C(=O)NC1C(=O)N2C(C(=O)[O-])=C(C[n+]3ccsc3SCC(=O)O)CS[C@H]12)c1csc(N)n1)C(=O)O` (stereo partly drawn) [Example 13, 7-[(Z)-2-(2-Aminothiazol-4-yl)-2-(2-carboxyprop-2-oxyimino)acetamido]-3-(2-carboxymethylthiothiazolio)methyl-3-cephem-4-carboxylate], the MIC in experiment [1] (setting [7]) turned out to be 1.6 µg/mL (≈ 2.49 µM); in experiment [2] it was 23 µg/mL (≈ 35.8 µM); in experiment [3] (setting [8]), 0.26 µg/mL (≈ 0.405 µM); in experiment [4] (setting [9]), 25 µg/mL (≈ 38.9 µM); in experiment [5] (setting [10]) it was 50 µg/mL (≈ 77.8 µM); in experiment [6], 4 µg/mL (≈ 6.22 µM).

As for `CNc1scc[n+]1CC1=C(C(=O)[O-])N2C(=O)C(NC(=O)/C(=N\OC(C)(C)C(=O)O)c3csc(N)n3)[C@H]2SC1` (stereo partly drawn) [Example 15, 7-[(Z)-2-(2-Aminothiazol-4-yl)-2-(2-carboxyprop-2-oxyimino)acetamido]-3-(2-methylaminothiazolio)methyl-3-cephem-4-carboxylate], the minimum inhibitory concentration (MIC) in experiment [1] amounted to 3.6 µg/mL (≈ 6.19 µM); in experiment [2] it was 13 µg/mL (≈ 22.3 µM); in experiment [3] (setting [8]) it was 0.4 µg/mL (≈ 0.688 µM); in experiment [4] (setting [9]), 7.2 µg/mL (≈ 12.4 µM); in experiment [5] (setting [10]) it was 25 µg/mL (≈ 43 µM); in experiment [6], 5.5 µg/mL (≈ 9.46 µM).

For `CC(C)(O/N=C(\C(=O)NC1C(=O)N2C(C(=O)[O-])=C(C[n+]3ccsc3)CSC12)c1csc(N)n1)C(=O)O` (stereo not drawn) [Example 5, 7-[(Z)-2-(2-Aminothiazol-4-yl)-2-(2-carboxyprop-2-oxyimino)acetamido]-3-thiazoliomethyl-3-cephem-4-carboxylate], the minimal inhibitory concentration (MIC) worked out at 3.6 µg/mL (≈ 6.51 µM) in experiment [1]; 3.1 µg/mL (≈ 5.61 µM) in experiment [2]; 0.13 µg/mL (≈ 0.235 µM) in experiment [3] (setting [8]); 8.3 µg/mL (≈ 15 µM) in experiment [4] (setting [9]); 25 µg/mL (≈ 45.2 µM) in experiment [5] (setting [10]); 2.5 µg/mL (≈ 4.52 µM) in experiment [6].

For the molecule `Cc1csc[n+]1CC1=C(C(=O)[O-])N2C(=O)C(NC(=O)/C(=N\OC(C)(C)C(=O)O)c3csc(N)n3)C2SC1` (stereo not drawn) [Example 7, 7-[(Z)-2-(2-Aminothiazol-4-yl)-2-(2-carboxyprop-2-oxyimino)acetamido]-3-(4-methylthiazolio)methyl-3-cephem-4-carboxylate], the MIC in experiment [1] (setting [7]) was 2.8 µg/mL (≈ 4.94 µM); in experiment [2], 4 µg/mL (≈ 7.06 µM); in experiment [3] (setting [8]), 0.076 µg/mL (≈ 0.134 µM); in experiment [4] (setting [9]) it was 7.2 µg/mL (≈ 12.7 µM); in experiment [5] (setting [10]), 12.5 µg/mL (≈ 22.1 µM); in experiment [6], 1.8 µg/mL (≈ 3.18 µM).

Turning to `CSc1scc(C)[n+]1CC1=C(C(=O)[O-])N2C(=O)C(NC(=O)/C(=N\OC(C)(C)C(=O)O)c3csc(N)n3)[C@H]2SC1` (stereo partly drawn) [Example 16, 7-[(Z)-2-(2-Aminothiazol-4-yl)-2-(2-carboxyprop-2-oxyimino)acetamido]-3-(4-methyl-2-methylthiothiazolio)methyl-3-cephem-4-carboxylate], the MIC in experiment [1] (setting [7]) is 0.53 µg/mL (≈ 0.865 µM); in experiment [2], 2.8 µg/mL (≈ 4.57 µM); in experiment [3] (setting [8]) it was 0.1 µg/mL (≈ 0.163 µM); in experiment [4] (setting [9]), 4.2 µg/mL (≈ 6.85 µM); in experiment [5] (setting [10]), 19 µg/mL (≈ 31 µM); in experiment [6] it was 0.79 µg/mL (≈ 1.29 µM).

For `CO/N=C(\C(=O)NC1C(=O)N2C(C(=O)[O-])=C(C[n+]3csc(CCN)c3C)CSC12)c1csc(N)n1` (stereo not drawn) [Example 10, 7-[(Z)-2-(2-Aminothiazol-4-yl)-2-methoxyiminoacetamido]-3-[5-(2-aminoethyl)-4-methylthiazolio]methyl-3-cephem-4-carboxylate], the MIC in experiment [1] worked out at 5.5 µg/mL (≈ 10.2 µM); in experiment [2], 22 µg/mL (≈ 40.9 µM); in experiment [3] (setting [8]) it was 0.8 µg/mL (≈ 1.49 µM); in experiment [4] (setting [9]) it was 2.1 µg/mL (≈ 3.91 µM); in experiment [5] (setting [10]) it was 6.3 µg/mL (≈ 11.7 µM); in experiment [6], 1.4 µg/mL (≈ 2.6 µM).
